Experiments:
[1] = test system: IL-6 mRNA expression in H4 cells; test: IL-6 mRNA expression by qPCR in H4 cells stimulated with IL-6 + TNFa (inflammation amplifier); type: cell-based, human; conditions: under IL-6 and TNF-α stimulation, relative to GAPDH, remaining expression vs si-control
Description: (§1) siRNA (GCAAGACAAGAGAUGAUUUtt (SEQ ID No. 23), Ambion Silencer Select siRNA, Thermo Fisher Scientific) against NEDD4 SP3, and control siRNA (Ambion Silencer Select siRNA, Thermo Fisher Scientific) were transfected into a human glioma cell line (H4 cells) using Lipofectamine RNAiMAX (Thermo Fisher Scientific), and NEDD4 SP3 knockdown cells were constructed. After stimulating the control cells and the knockdown cells with IL-6 +TNFa, the IL-6 mRNA expression was measured by qPCR (primer sequence: […] (SEQ ID No. 24) and […] (SEQ ID No.25)). Moreover, the knockdown efficiency was confirmed using the NEDD4 SP3 expression as an index. The expression level indicates the relative amount with respect to the housekeeping gene GAPDH (primer sequence: […] (SEQ ID No.26) and CGCTCCTGGAAGATGGTG (SEQ ID No.27)).

[2] = test system: NEDD4 SP3 mRNA; test: Knockdown efficiency: NEDD4 SP3 mRNA expression by qPCR in siRNA-transfected H4 cells; type: cell-based, human; conditions: under TNF-α stimulation, relative to GAPDH, remaining expression vs si-control
Description: as §1

Substance: GCAAGACAAGAGAUGAUUUtt (SEQ ID No. 23) (GCAAGACAAGAGAUGAUUUTT; chemistry not given here) [NEDD4 si-SP3, siRNA against NEDD4 SP3, Ambion Silencer Select siRNA, Thermo Fisher Scientific]
- IL-6 mRNA expression level compared to H4 cells introduced with si-control [1]: 41.0%
- NEDD4 SP3 mRNA expression level compared to H4 cells introduced with si-control [2]: 4.2%
